Source: ChEMBL document CHEMBL1201862, “PubChem BioAssay data set” (2004)
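All cell lines were grown in 96-well plates and treated with compound for 48 hours. Here, GI50 denotes the concentration required for 50% inhibition of growth.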 The source made the active and inactive calls. No stated cut-off is given here; in the data, active = GI50 up to about 1.1 µM and inactive = higher.

Columns and labels:
Test in all cases: DTP human tumour cell line panel, 48 h
SK-MEL-5 = test system: SK-MEL-5
DLD-1 = test system: DLD-1
HOP-62 = test system: HOP-62
K562 = test system: K562
Malme-3M = test system: Malme-3M
SF-295 = test system: SF-295
EKVX = test system: EKVX
M14 = test system: M14
COLO 205 = test system: COLO 205
UACC-257 = test system: UACC-257
OVCAR-5 = test system: OVCAR-5
U-251 = test system: U-251
SF-539 = test system: SF-539
CAKI-1 = test system: CAKI-1
TK-10 = test system: TK-10
OVCAR-4 = test system: OVCAR-4
786-0 = test system: 786-0
LOX IMVI = test system: LOX IMVI
KM-20L2 = test system: KM-20L2
SK-MEL-2 = test system: SK-MEL-2
NCI-H23 = test system: NCI-H23
UACC-62 = test system: UACC-62
RPMI-8226 = test system: RPMI-8226
HCC 2998 = test system: HCC 2998
HT-29 = test system: HT-29
KM12 = test system: KM12
SNB-78 = test system: SNB-78
DMS-273 = test system: DMS-273
OVCAR-3 = test system: OVCAR-3
SW-620 = test system: SW-620
A549 = test system: A549
HOP-18 = test system: HOP-18
A498 = test system: A498
HL-60 = test system: HL-60
OVCAR-8 = test system: OVCAR-8
XF498 = test system: XF498
HCT-15 = test system: HCT-15
SN12C = test system: SN12C
M19-MEL = test system: M19-MEL
SNB-75 = test system: SNB-75
MOLT-4 = test system: MOLT-4
CCRF-CEM = test system: CCRF-CEM
IGROV-1 = test system: IGROV-1
RXF 393 = test system: RXF 393
SF-268 = test system: SF-268
SK-MEL-28 = test system: SK-MEL-28
ACHN = test system: ACHN
LXFL 529 = test system: LXFL 529
DMS-114 = test system: DMS-114
NCI-H460 = test system: NCI-H460
HOP-92 = test system: HOP-92
UO-31 = test system: UO-31
SR = test system: SR
NCI-H226 = test system: NCI-H226
SK-OV-3 = test system: SK-OV-3
HCT-116 = test system: HCT-116
SNB-19 = test system: SNB-19
NCI-H522 = test system: NCI-H522

With `C/C(=N\NC(=S)N1CCCCCC1)c1nccnc1C` the GI50 (SK-MEL-5) was 0.0292 µM (active), the GI50 (DLD-1) was 1.42 µM (inactive) and the GI50 (HOP-62) was 35.3 µM (inactive). The GI50 (K562) was 0.055 µM (active), the GI50 (Malme-3M) was 11.8 µM (inactive) and the GI50 (SF-295) was 0.124 µM (active). The GI50 (EKVX) was 0.0188 µM (active), the GI50 (M14) was < 0.01 µM (active) and the GI50 (COLO 205) was < 0.01 µM (active). For the same molecule, the GI50 (UACC-257) was < 0.01 µM (active), the GI50 (OVCAR-5) was 0.169 µM (active) and the GI50 (U-251) was 0.2 µM (active). For the same molecule, the GI50 (SF-539) was 0.242 µM (active), the GI50 (CAKI-1) was 0.155 µM (active) and the GI50 (TK-10) was 0.56 µM (active). For the same molecule, the GI50 (OVCAR-4) was 0.134 µM (active), the GI50 (786-0) was 5.14 µM (inactive) and the GI50 (LOX IMVI) was < 0.01 µM (active). The GI50 (KM-20L2) was < 0.01 µM (active), the GI50 (SK-MEL-2) was 12.8 µM (inactive) and the GI50 (NCI-H23) was < 0.01 µM (active). For the same molecule, the GI50 (UACC-62) was < 0.01 µM (active), the GI50 (RPMI-8226) was 0.159 µM (active) and the GI50 (HCC 2998) was 7.36 µM (inactive). For the same molecule, the GI50 (HT-29) was 0.0719 µM (active), the GI50 (KM12) was 0.0887 µM (active) and the GI50 (SNB-78) was 0.885 µM (active). For the same molecule, the GI50 (DMS-273) was < 0.01 µM (active), the GI50 (OVCAR-3) was < 0.01 µM (active) and the GI50 (SW-620) was < 0.01 µM (active). The GI50 (A549) was 0.0331 µM (active), the GI50 (HOP-18) was 0.617 µM (active) and the GI50 (A498) was 1.58 µM (inactive). For the same molecule, the GI50 (HL-60) was 0.0508 µM (active), the GI50 (OVCAR-8) was < 0.01 µM (active) and the GI50 (XF498) was 1.43 µM (inactive). For the same molecule, the GI50 (HCT-15) was < 0.01 µM, the GI50 (SN12C) was 0.285 µM (active) and the GI50 (M19-MEL) was 0.174 µM (active). For the same molecule, the GI50 (SNB-75) was 0.605 µM (active), the GI50 (MOLT-4) was 0.0658 µM (active) and the GI50 (CCRF-CEM) was 0.0607 µM (active). For the same molecule, the GI50 (IGROV-1) was < 0.01 µM (active), the GI50 (RXF 393) was 0.231 µM (active) and the GI50 (SF-268) was 0.176 µM (active). The GI50 (SK-MEL-28) was 0.106 µM (active), the GI50 (ACHN) was 0.219 µM (active) and the GI50 (LXFL 529) was < 0.01 µM (active). The GI50 (DMS-114) was < 0.01 µM (active).

In the case of `O=c1c2cc3c(cc2c2cccc4c2n1CCC4)OCO3`, the GI50 (SK-MEL-5) is reported as 42.4 µM (inactive), the GI50 (DLD-1) is reported as 26.8 µM (inactive) and the GI50 (HOP-62) is reported as 56.8 µM (inactive). The GI50 (K562) was 45.8 µM (inactive), the GI50 (Malme-3M) was 86.1 µM (inactive) and the GI50 (SF-295) was 33.8 µM (inactive). For the same molecule, the GI50 (EKVX) was 33 µM (inactive), the GI50 (M14) was 46.9 µM (inactive) and the GI50 (COLO 205) was 26.3 µM (inactive). The GI50 (UACC-257) was 33.1 µM (inactive), the GI50 (NCI-H460) was 37.1 µM (inactive) and the GI50 (OVCAR-5) was 58.7 µM (inactive). For the same molecule, the GI50 (U-251) was 23.1 µM (inactive), the GI50 (SF-539) was 30.4 µM (inactive) and the GI50 (HOP-92) was 55.5 µM (inactive). The GI50 (UO-31) was 22.4 µM (inactive), the GI50 (CAKI-1) was 78.9 µM (inactive) and the GI50 (SR) was 29.2 µM (inactive). For the same molecule, the GI50 (TK-10) was 27.1 µM (inactive), the GI50 (OVCAR-4) was 88.9 µM (inactive) and the GI50 (NCI-H226) was > 100 µM (inactive). For the same molecule, the GI50 (786-0) was 27 µM (inactive), the GI50 (LOX IMVI) was 42.9 µM (inactive) and the GI50 (KM-20L2) was 45.7 µM (inactive). For the same molecule, the GI50 (SK-MEL-2) was > 100 µM (inactive), the GI50 (NCI-H23) was 22.4 µM (inactive) and the GI50 (UACC-62) was 46.2 µM (inactive). For the same molecule, the GI50 (RPMI-8226) was 30.2 µM (inactive), the GI50 (HCC 2998) was 26.6 µM (inactive) and the GI50 (HT-29) was 51.1 µM (inactive). For the same molecule, the GI50 (KM12) was 33.3 µM (inactive), the GI50 (SNB-78) was 68.5 µM (inactive) and the GI50 (SK-OV-3) was 55.3 µM (inactive). For the same molecule, the GI50 (DMS-273) was 28.1 µM (inactive), the GI50 (OVCAR-3) was 61.2 µM (inactive) and the GI50 (SW-620) was 29.4 µM (inactive). The GI50 (A549) was 51.6 µM (inactive), the GI50 (HOP-18) was 49.5 µM (inactive) and the GI50 (HCT-116) was 23.4 µM (inactive). For the same molecule, the GI50 (HL-60) was 53.8 µM (inactive), the GI50 (OVCAR-8) was 48.1 µM (inactive) and the GI50 (HCT-15) was 36.7 µM. The GI50 (SN12C) was 36.8 µM (inactive), the GI50 (M19-MEL) was 86.7 µM (inactive) and the GI50 (SNB-75) was 26.7 µM (inactive). For the same molecule, the GI50 (MOLT-4) was 24.6 µM (inactive), the GI50 (CCRF-CEM) was 89.3 µM (inactive) and the GI50 (IGROV-1) was 36.1 µM (inactive). The GI50 (SNB-19) was 44.7 µM (inactive), the GI50 (RXF 393) was 28.4 µM (inactive) and the GI50 (SK-MEL-28) was 69.5 µM (inactive). For the same molecule, the GI50 (ACHN) was 33.7 µM (inactive), the GI50 (LXFL 529) was 37.5 µM (inactive) and the GI50 (NCI-H522) was 16.2 µM (inactive).
